Measurements: a compilation of properties of binary mixtures (doi:10.1016/j.jct.2016.09.024)

Assay: xn = mol fraction of the nth substance listed
Settings: 100 kPa

CCO + CCCC[N+](C)(CCCC)CCCC.O=S(=O)([N-]S(=O)(=O)C(F)(F)F)C(F)(F)F
x1 = 1
Settings	speed of sound [m/s]
293.15 K	1160.4
298.15 K	1143.3
303.15 K	1126.1

CCO + CCCC[N+](C)(C)C.O=S(=O)([N-]S(=O)(=O)C(F)(F)F)C(F)(F)F
x1 = 1
Settings	speed of sound [m/s]
293.15 K	1160.4
308.15 K	1108.9

CCCC[N+](C)(CCCC)CCCC.O=S(=O)([N-]S(=O)(=O)C(F)(F)F)C(F)(F)F + CCO
speed of sound [m/s]
Settings	293.15 K	298.15 K	303.15 K	308.15 K
x1 = 0.0149	–	1146.8	1130.4	1114.1
x2 = 0	1291.7	1276	1261.1	–
x2 = 0.0636	–	1271.9	1257.5	1244.1
x2 = 0.0711	1285.8	1272.2	–	1244.1
x2 = 0.1235	–	1268.1	1254.2	–
x2 = 0.2012	1277.4	1263.2	1249.4	1236.2
x2 = 0.3995	1262.3	–	1235.2	1221.9
x2 = 0.6009	1241.4	1227.8	1214.4	1200.8
x2 = 0.7187	1224.1	1210.4	1196.3	1182.7
x2 = 0.8118	1205.7	1192	–	1163.3
x2 = 0.8605	1194.3	–	–	1151.2
x2 = 0.9076	1181.8	1166.7	1151.6	1136.7
x2 = 0.93	1175.6	1160.2	–	1129.9
x2 = 0.95	1170.7	–	–	1123.5
x2 = 0.96	–	1152.3	–	1120.9
x2 = 0.9702	1165.7	–	1133.6	–

C[N+](C)(C)CCO.O=S(=O)([N-]S(=O)(=O)C(F)(F)F)C(F)(F)F + CCO
speed of sound [m/s]
Settings	293.15 K	298.15 K	303.15 K	308.15 K
x2 = 0.7051	1221.8	1207.6	1195.3	1183.5
x2 = 0.801	–	1183.2	1170	1157.2
x2 = 0.9002	1172.1	1156.6	1142.5	1128.2
x2 = 0.9601	1162.4	1145.9	1130.3	1115

CCO + C[N+](C)(C)CCO.O=S(=O)([N-]S(=O)(=O)C(F)(F)F)C(F)(F)F
x1 = 1
Settings	speed of sound [m/s]
303.15 K	1126.1
308.15 K	1108.9

CCCC[N+](C)(C)C.O=S(=O)([N-]S(=O)(=O)C(F)(F)F)C(F)(F)F + CCO
speed of sound [m/s]
Settings	293.15 K	298.15 K	303.15 K	308.15 K
x1 = 0.01	1160.4	–	1126.8	1110.1
x2 = 0	1239.5	1228.9	1218.3	1208.1
x2 = 0.0605	1237.5	1226.8	1216.1	1205.9
x2 = 0.101	1235.4	1224.6	1214	–
x2 = 0.1991	–	1220.2	1209.5	1199
x2 = 0.3	1225.3	1214.6	–	1193.1
x2 = 0.4096	1218.1	1206.9	1195.8	1185
x2 = 0.4998	1210.5	1199.2	1187.9	–
x2 = 0.5996	1200.8	1189.1	–	1166.4
x2 = 0.6504	1195.1	1183.1	–	1159.6
x2 = 0.7501	–	1169.2	1156.6	1144.4
x2 = 0.8514	1166.7	1152.8	–	1126.2
x2 = 0.88	1163.4	–	1134.6	1117
x2 = 0.92	1158.1	1143.6	1129.8	1114.5
x2 = 0.93	1158	1142.8	1128	1113.2
x2 = 0.94	1157.5	1142.1	1127	1112.2
x2 = 0.9609	1157.2	1141.7	1126	1110.5
x2 = 0.97	–	1142.1	–	1110.4
x2 = 0.98	–	1142.2	1125.9	1109.9
